# Measured values taken from patent US12281363B2, “Methods for detecting antiviral-drug resistant virus” (Secretary of State for Health and Social Care, priority 2018, dated 2025).
# Read-outs that look alike come from different tables or passages of the source.
# System: HSV-2
# Assay: Plaque reduction assay, HSV-2 clinical isolates on Vero cells
# Assay type: cell-based
# Conditions: for IC50: Human alphaherpesvirus 2, Vero
# Excerpt: Viral isolates were used to infect a sub-confluent monolayer of Vero cells at a concentration of 75 or 50 plaque forming units (PFU) per well for HSV-1 and HSV-2, respectively. […] CMC medium typically used to create a semisolid interface and prevents indiscrimate viral spreading. Other materials (e.g. agar) may also be used to create this interface.
# Cells were fixed with 10% formalin and stained with crystal violet before enumeration of the plaques (microscopic observation or use of fluorescent antibodies for detection is also suitable). The data obtained from these experiments were then expressed as percent inhibition of viral infectivity relative to the no drug control.
# Definitions of phenotypic drug susceptibility classification as sensitive or resistant were as follows: ACV, <3 μM or >40 μM; PCV, <10 μM or >40 μM; CDV, <24 μM or >30 μM; FOS, <250 μM or >400 μM; and ACV, <6.5 μM or >40 μM; PCV, <38 μM or >40 μM; FOS, <250 μM or >400 μM for HSV-1 and HSV-2, respectively. Any IC50 values falling in between these sensitive and resistant cut-offs were reported as intermediate resistance.
# The phenotype (i.e. reactivity to a drug) of the virus was characterised by the plaque reduction assay as described above. The present inventors have characterised the resistance-causing phenotype of a large number of TK and DNA pol mutations.
smiles,measurement,setting,value
"Nc1nc2c(ncn2COCCO)c(=O)[nH]1 [Aciclovir, acyclovir]",Level of resistance,HSV-2 DNA pol R628G (18820>G),weak/intermediate resistance
same,IC50,"isolate HPG001, HSV-2 TK A125T (373G>A), read-out: Drug susceptibility (IC50 value)",1.53 µM
same,IC50,"isolate HPG001, HSV-2 pol H714R (2141A>G), read-out: Drug susceptibility (IC50 value)",1.53 µM
same,IC50,"isolate HPG004, HSV-2 pol M494T (1481T>C), also pol S729N, read-out: Drug susceptibility (IC50 value)",> 40 µM
same,IC50,"isolate HPG007, HSV-2 pol R628G (1882C>G), read-out: Drug susceptibility (IC50 value)",28.6 µM
same,IC50,"isolate HPG017, HSV-2 TK Q186H (558G>T), read-out: Drug susceptibility (IC50 value)",10.2 µM
same,IC50,"isolate HPG022, HSV-2 TK E213D (639A>C), read-out: Drug susceptibility (IC50 value)",4.46 µM
same,IC50,"isolate HPG022, HSV-2 pol D174Y (520G>T), read-out: Drug susceptibility (IC50 value)",4.46 µM
same,IC50,"isolate HPG023, HSV-2 TK Q186H (558G>T), read-out: Drug susceptibility (IC50 value)",12.1 µM
same,IC50,"isolate HPG024, HSV-2 TK E213D (639A>C), read-out: Drug susceptibility (IC50 value)",2.5 µM
same,IC50,"isolate HPG028, HSV-2 TK 98stop or A94fs (276delG, 278delG, 279delG, or 280delG), read-out: Drug susceptibility (IC50 value)",> 40 µM
same,IC50,"isolate HPG028, HSV-2 pol E776Q (2326G>C), also TK deletion (G) nt 276-280, read-out: Drug susceptibility (IC50 value)",> 40 µM
same,IC50,"isolate HPG028, HSV-2 pol R775C, R775W (2323C>T; 2325C>G), also TK deletion (G) nt 276-280, read-out: Drug susceptibility (IC50 value)",> 40 µM
same,IC50,"isolate HPG030, HSV-2 TK Q90stop (268C>T), read-out: Drug susceptibility (IC50 value)",> 40 µM
same,IC50,"isolate HPG030, HSV-2 pol E761K (2281G>A), also TK Q90stop, read-out: Drug susceptibility (IC50 value)",> 40 µM
same,IC50,"isolate HPG036, HSV-2 TK E84K (250G>A), read-out: Drug susceptibility (IC50 value)",> 40 µM
same,IC50,"isolate HPG038, HSV-2 TK R34C (100C>T), read-out: Drug susceptibility (IC50 value)",2.04 µM
same,IC50,"isolate HPG044, HSV-2 TK M86L (256A>C), read-out: Drug susceptibility (IC50 value)",> 40 µM
same,IC50,"isolate HPG048, HSV-2 TK Q90stop (268C>T), read-out: Drug susceptibility (IC50 value)",> 40 µM
same,IC50,"isolate HPG048, HSV-2 pol E761K (2281G>A), also TK Q90stop, read-out: Drug susceptibility (IC50 value)",> 40 µM
same,IC50,"isolate HPG057, HSV-2 TK 98stop or A94fs (276delG, 278delG, 279delG, or 280delG), read-out: Drug susceptibility (IC50 value)",> 40 µM
same,IC50,"isolate HPG058, HSV-2 TK 183stop or P154fs (458delC, 459delC, 460delC, or 461delC), read-out: Drug susceptibility (IC50 value)",36.2 µM
same,IC50,"read-out: Drug susceptibility (IC50 value), isolate HPG034, HSV-2 TK L313S (938A>C)",35.8 µM
same,IC50,"read-out: Drug susceptibility (IC50 value), isolate HPG056, HSV-2 pol M447L (1339A>C)",1.56 µM
same,IC50,"read-out: Drug susceptibility Aciclovir (ACV), isolate HPG001, HSV-2 TK A125T (373G>A)",< 6.5 µM
same,IC50,"read-out: Drug susceptibility Aciclovir (ACV), isolate HPG001, HSV-2 pol H714R (2141A>G)",< 6.5 µM
same,IC50,"read-out: Drug susceptibility Aciclovir (ACV), isolate HPG004, HSV-2 pol M494T (1481T>C), also pol S729N",> 40 µM
same,IC50,"read-out: Drug susceptibility Aciclovir (ACV), isolate HPG007, HSV-2 pol R628G (1882C>G)",6.5 to 40 µM
same,IC50,"read-out: Drug susceptibility Aciclovir (ACV), isolate HPG017, HSV-2 TK Q186H (558G>T)",6.5 to 40 µM
same,IC50,"read-out: Drug susceptibility Aciclovir (ACV), isolate HPG022, HSV-2 TK E213D (639A>C)",< 6.5 µM
same,IC50,"read-out: Drug susceptibility Aciclovir (ACV), isolate HPG022, HSV-2 pol D174Y (520G>T)",< 6.5 µM
same,IC50,"read-out: Drug susceptibility Aciclovir (ACV), isolate HPG023, HSV-2 TK Q186H (558G>T)",6.5 to 40 µM
same,IC50,"read-out: Drug susceptibility Aciclovir (ACV), isolate HPG024, HSV-2 TK E213D (639A>C)",< 6.5 µM
same,IC50,"read-out: Drug susceptibility Aciclovir (ACV), isolate HPG028, HSV-2 TK 98stop or A94fs (276delG, 278delG, 279delG, or 280delG)",> 40 µM
same,IC50,"read-out: Drug susceptibility Aciclovir (ACV), isolate HPG028, HSV-2 pol E776Q (2326G>C), also TK deletion (G) nt 276-280",> 40 µM
same,IC50,"read-out: Drug susceptibility Aciclovir (ACV), isolate HPG028, HSV-2 pol R775C, R775W (2323C>T; 2325C>G), also TK deletion (G) nt 276-280",> 40 µM
same,IC50,"read-out: Drug susceptibility Aciclovir (ACV), isolate HPG030, HSV-2 TK Q90stop (268C>T)",> 40 µM
same,IC50,"read-out: Drug susceptibility Aciclovir (ACV), isolate HPG030, HSV-2 pol E761K (2281G>A), also TK Q90stop",> 40 µM
same,IC50,"read-out: Drug susceptibility Aciclovir (ACV), isolate HPG034, HSV-2 TK L313S (938A>C)",6.5 to 40 µM
same,IC50,"read-out: Drug susceptibility Aciclovir (ACV), isolate HPG036, HSV-2 TK E84K (250G>A)",> 40 µM
same,IC50,"read-out: Drug susceptibility Aciclovir (ACV), isolate HPG038, HSV-2 TK R34C (100C>T)",< 6.5 µM
same,IC50,"read-out: Drug susceptibility Aciclovir (ACV), isolate HPG044, HSV-2 TK M86L (256A>C)",> 40 µM
same,IC50,"read-out: Drug susceptibility Aciclovir (ACV), isolate HPG048, HSV-2 TK Q90stop (268C>T)",> 40 µM
same,IC50,"read-out: Drug susceptibility Aciclovir (ACV), isolate HPG048, HSV-2 pol E761K (2281G>A), also TK Q90stop",> 40 µM
same,IC50,"read-out: Drug susceptibility Aciclovir (ACV), isolate HPG056, HSV-2 pol M447L (1339A>C)",< 6.5 µM
same,IC50,"read-out: Drug susceptibility Aciclovir (ACV), isolate HPG057, HSV-2 TK 98stop or A94fs (276delG, 278delG, 279delG, or 280delG)",> 40 µM
same,IC50,"read-out: Drug susceptibility Aciclovir (ACV), isolate HPG058, HSV-2 TK 183stop or P154fs (458delC, 459delC, 460delC, or 461delC)",6.5 to 40 µM
